Source: patent publication US20240262815A1, “HETEROARYL DERIVATIVE, METHOD FOR PREPARING SAME, AND PHARMACEUTICAL COMPOSITION COMPRISING SAME AS ACTIVE INGREDIENT” (VORONOI INC., priority 2021, published 2024)

Test system: SK-BR-3 cancer cells
Test: Inhibitory activity against proliferation of SK-BR-3 cancer cells (CellTiter-Glo)
Assay type: cell-based
Settings: Homo sapiens, SK-BR-3, 120 h, ErbB2-overexpressing SK-BR-3 cells, 120 hours after treatment
Method: To evaluate the inhibitory activity of a compound according to the present invention against the proliferation of ErbB2-overexpressing cancer cells, the following experiment were performed.
10% FBS-added McCOY'S 5A was used for SK-BR-3 cancer cells. 20% FBS-added RPMI-1640 was used for BT-474 cancer cells. Transduced Ba/F3 cells were cultured in a RPMI-1640 medium to which 1 μg/ml puromycin (Invitrogen) was added.
48 hours before compound treatment, each type of the SK-BR-3 and BT-474 cells were seeded at 5,000 cells/well in a white clear bottom 96 well plate (Corning). The compound was diluted in dimethyl sulfoxide (SK-BR-3: 3-fold dilution, a total of 12 concentrations, BT-474: […], a total of 12 concentrations) and injected at 1 μl to have the final concentration of 0.2 nM to 5 μM. As for measurement of live cells, 120 hours after treatment with the compound, a CellTiter-Glo luminescent cell-viability reagent (Promega) was used to store the cells at room temperature for 10 minutes, followed by measurement of luminescence using a reader (SynergyNeo, Biotek). Each test was repeated three times.
The result values were calculated as a cell growth rate (%) compared to the control group. A graph was plotted using the GraphPad Prism version 8.3.0 program, and GI50 values were calculated.

| GI50 [nM] | SMILES |
| --- | --- |
| < 50 | C=CC(=O)Nc1cc(Nc2cc(N3OCC[C@@H]3c3cccc(Oc4cccc(C(F)(F)F)c4)c3)ncn2)c(OC)cc1N1CCN(C)CC1 [Example compound 93, (R)-N-(4-methoxy-2-(4-methylpiperazin-1-yl)-5-((6-(3-(3-(3-(trifluoromethyl)phenoxy)phenyl)isoxazolidin-2-yl)pyrimidin-4-yl)amino)phenyl)acrylamide] |
| < 50 | C=CC(=O)Nc1cc(Nc2cc(N3OCC[C@@H]3c3cccc(C#Cc4cccc(F)c4)c3)ncn2)c(OC)cc1N(C)CCN(C)C [Example 313, (R)-N-(2-((2-(dimethylamino)-ethyl)(methyl)-amino)-5-((6-(3-(3-((3-fluorophen-yl)ethynyl)phenyl)-isoxazolidin-2-yl)pyrimidin-4-yl)-amino)-4-methoxy-phenyl)acrylamide] |
| 50 to 500 | C=CC(=O)Nc1cc(Nc2cc(N3OCCC3c3cccc(-c4cccc(F)c4)c3)ncn2)c(OC)cc1N1CCN(C)CC1 (stereo not shown) [Example 211, N-(5-((6-(3-(3′-fluoro-[1,1′-biphenyl]-3-yl)-isoxazolidin-2-yl)-pyrimidin-4-yl)-amino)-4-methoxy-2-(4-methylpiper-azin-1-yl)phenyl)-acrylamide] |
| < 50 | C=CC(=O)Nc1cc(Nc2cc(N3OCC[C@@H]3c3cccc(-c4ccccc4)c3)ncn2)c(OC)cc1N1CCN(C(C)=O)CC1 [Example 215, (R)-N-(5-((6-(3-([1,1′-biphenyl]-3-yl)isoxazolidin-2-yl)pyrimidin-4-yl)-amino)-2-(4-acetyl-piperazin-1-yl)-4-methoxyphenyl)-acrylamide] |
| 50 to 500 | C=CC(=O)Nc1cc(Nc2cc(N3OCC[C@@H]3c3cc(F)cc(Oc4cccc(F)c4)c3)ncn2)c(OC)cc1N1CCN(C)CC1 [Example 191, (R)-N-(5-((6-(3-(3-fluoro-5-(3-fluoro-phenoxy)phenyl)-isoxazolidin-2-yl)-pyrimidin-4-yl)-amino)-4-meth-oxy-2-(4-methyl-piperazin-1-yl)-phenyl)acrylamide] |
| < 50 | C=CC(=O)Nc1cc(Nc2cc(N3OCC[C@@H]3c3cccc(-c4cnc5ccnn5c4)c3)ncn2)c(OC)cc1N1CCN(C)CC1 [Example 262, (R)-N-(4-methoxy-2-(4-methylpiper-azin-1-yl)-5-((6-(3-(3-(pyrazolo[1,5-a]pyrimidin-6-yl)-phenyl)isoxazol-idin-2-yl)pyrim-idin-4-yl)amino)-phenyl)acrylamide] |
| < 50 | C=CC(=O)Nc1cc(Nc2cc(N3OCC[C@@H]3c3cccc(-c4cccc(F)c4)c3F)ncn2)c(OC)cc1N1CCC(N2CCN(C3CC3)CC2)CC1 [Example 252, (R)-N-(2-(4-(4-cyclopropylpiper-azin-1-yl)piper-idin-1-yl)-5-((6-(3-(2,3′-difluoro-[1,1′-biphenyl]-3-yl)isoxazolidin-2-yl)pyrimidin-4-yl)-amino)-4-methoxy-phenyl)acrylamide] |
| < 50 | C=CC(=O)Nc1cc(Nc2cc(N3OCC[C@@H]3c3cccc(Oc4cccc(C(F)(F)F)c4)c3)ncn2)c(OC)cc1N1CCC(N2CCN(C3CC3)CC2)CC1 [Example compound 94, (R)-N-(2-(4-(4-cyclopropylpiperazin-1-yl)piperidin-1-yl)-4-methoxy-5-((6-(3-(3-(3-(trifluoromethyl)phenoxy)phenyl)isoxazolidin-2-yl)pyrimidin-4-yl)amino)phenyl)acrylamide] |
| 50 to 500 | C=CC(=O)Nc1cc(Nc2cc(N3OCCC3c3cccc(-c4cc(F)cc(F)c4)c3)ncn2)c(OC)cc1N1CCC(N2CCN(C3CC3)CC2)CC1 (stereo not shown) [Example 249, N-(2-(4-(4-cyclo-propylpiperazin-1-yl)piperidin-1-yl)-5-((6-(3-(3′,5′-difluoro-[1,1′-biphenyl]-3-yl)-isoxazolidin-2-yl)-pyrimidin-4-yl)-amino)-4-methoxy-phenyl)acrylamide] |
| < 50 | C=CC(=O)Nc1cc(Nc2cc(N3OCC[C@@H]3c3cc(F)cc(-c4ccsc4)c3)ncn2)c(OC)cc1N(C)CCN(C)C [Example 194, (R)-N-(2-((2-(dimethylamino)-ethyl)(methyl)-amino)-5-((6-(3-(3-fluoro-5-(thio-phen-3-yl)phenyl)-isoxazolidin-2-yl)-pyrimidin-4-yl)-amino)-4-methoxy-phenyl)acrylamide] |
| < 50 | C=CC(=O)Nc1cc(Nc2cc(N3OCC[C@@H]3c3cccc(Oc4cc(F)cc(F)c4)c3)ncn2)c(OC)cc1N(C)CCN(C)C [Example 226, (R)-N-(5-((6-(3-(3-(3,5-difluoro-phenoxy)phenyl)-isoxazolidin-2-yl)-pyrimidin-4-yl)-amino)-2-((2-(dimethylamino)-ethyl)(methyl)-amino)-4-methoxy-phenyl)acrylamide] |
| < 50 | C=CC(=O)Nc1cc(Nc2cc(N3OCC[C@@H]3c3cccc(-c4cccc(F)c4)c3)ncn2)c(OC)cc1N1CC2CN(C)CC2C1 (stereo partly drawn) [Example 319, N-(5-((6-((R)-3-(3′-fluoro-[1,1′-biphenyl]-3-yl)-isoxazolidin-2-yl)-pyrimidin-4-yl)-amino)-4-methoxy-2-(5-methylhexa-hydropyrrolo[3,4-c]pyrrol-2(1H)-yl)-phenyl)acrylamide] |
| 50 to 500 | C=CC(=O)Nc1cc(Nc2cc(N3OCC[C@@H]3c3cc(F)cc(Oc4cccc(F)c4)c3)ncn2)c(OC)cc1N(C)CCN(C)C [Example 199, (R)-N-(2-((2-(dimethylamino)-ethyl)(methyl)-amino)-5-((6-(3-(3-fluoro-5-(3-fluorophenoxy)-phenyl)isoxazol-idin-2-yl)pyrim-idin-4-yl)amino)-4-methoxyphen-yl)acrylamide] |
| 50 to 500 | C=CC(=O)Nc1cc(Nc2cc(N3OCC[C@@H]3c3cc(F)cc(Oc4ccn(C)n4)c3)ncn2)c(OC)cc1N1CCN(C)CC1 [Example 217, (R)-N-(5-((6-(3-(3-fluoro-5-((1-methyl-1H-pyr-azol-3-yl)oxy)-phenyl)isoxazol-idin-2-yl)pyrim-idin-4-yl)amino)-4-methoxy-2-(4-methylpiperazin-1-yl)phenyl)-acrylamide] |
| < 50 | C=CC(=O)Nc1cc(Nc2cc(N3OCC[C@@H]3c3cccc(C(=O)NC4CCCCC4)c3)ncn2)c(OC)cc1N1CCC(N2CCN(C3CC3)CC2)CC1 [Example 254, (R)-3-(2-(6-((5-acrylamido-4-(4-(4-cyclopropyl-piperazin-1-yl)-piperidin-1-yl)-2-methoxyphenyl)-amino)pyrimidin-4-yl)isoxazolidin-3-yl)-N-cyclohex-ylbenzamide] |
| < 50 | C=CC(=O)Nc1cc(Nc2cc(N3OCC[C@@H]3c3cc(F)cc(-c4ccco4)c3)ncn2)c(OC)cc1N1CCC(N2CCN(C3CC3)CC2)CC1 [Example compound 134, (R)-N-(2-(4-(4-cyclopropylpiperazin-1-yl)piperidin-1-yl)-5-((6-(3-(3-fluoro-5-(furan-2-yl)phenyl)isoxazolidin-2-yl)pyrimidin-4-yl)amino)-4-methoxyphenyl)acrylamide] |
| < 50 | C=CC(=O)Nc1cc(Nc2cc(N3OCC[C@@H]3c3cccc(C(=O)NC(C)C)c3)ncn2)c(OC)cc1N(C)CCN(C)C [Example 247, (R)-3-(2-(6-((5-acrylamido-4-((2-(dimethylamino)-ethyl)(methyl)-amino)-2-methoxy-phenyl)amino)pyr-imidin-4-yl)isox-azolidin-3-yl)-N-isopropylbenzamide] |
| < 50 | C=CC(=O)Nc1cc(Nc2cc(N3OCC[C@@H]3c3cc(F)cc(-c4cccc5ncnn45)c3)ncn2)c(OC)cc1N1CCN(C)CC1 [Example 209, (R)-N-(5-((6-(3-(3-([1,2,4]triazolo-[1,5-a]pyridin-5-yl)-5-fluorophen-yl)isoxazolidin-2-yl)pyrimidin-4-yl)-amino)-4-methoxy-2-(4-methylpiper-azin-1-yl)phenyl)-acrylamide] |
| < 50 | C=CC(=O)Nc1cc(Nc2cc(N3OCC[C@@H]3c3cc(F)cc(-c4cccc(F)c4)c3)ncn2)c(OC)cc1N1CCN(C)CC1 [Example compound 130, (R)-N-(5-((6-(3-(3′,5-difluoro-[1,1′-biphenyl]-3-yl)isoxazolidin-2-yl)pyrimidin-4-yl)amino)-4-methoxy-2-(4-methylpiperazin-1-yl)phenyl)acrylamide] |
| < 50 | C=CC(=O)Nc1cc(Nc2cc(N3OCCC3c3cccc(-c4cnc5cccnn45)c3)ncn2)c(OC)cc1N(C)CCN(C)C (stereo not shown) [Example 235, N-(2-((2-(dimeth-ylamino)ethyl)-(methyl)amino)-5-((6-(3-(3-(imidazo[1,2-b]-pyridazin-3-yl)-phenyl)isoxazol-idin-2-yl)pyrim-idin-4-yl)amino)-4-methoxyphen-yl)acrylamide] |
| < 50 | C=CC(=O)Nc1cc(Nc2cc(N3OCCC3c3cccc(-c4cnn(C)c4)c3)ncn2)c(OC)cc1N1CCN(C)CC1 (stereo not shown) [Example 232, N-(4-methoxy-5-((6-(3-(3-(1-meth-yl-1H-pyrazol-4-yl)phenyl)isoxazol-idin-2-yl)pyrim-idin-4-yl)amino)-2-(4-methylpiper-azin-1-yl)phenyl)-acrylamide] |

| SMILES | GI50 [nM] |
| --- | --- |
| C=CC(=O)Nc1cc(Nc2cc(N3OCC[C@@H]3c3cccc(-c4cccc(F)c4)c3)ncn2)c(OC)cc1N1CC2CCC(C1)N2C1CC1 [Example 316, N-(2-((1R,5S)-8-cyclopropyl-3,8-diazabicyclo-[3.2.1]octan-3-yl)-5-((6-((R)-3-(3′-fluoro-[1,1′-biphen-yl]-3-yl)isoxazol-idin-2-yl)pyrim-idin-4-yl)amino)-4-methoxyphenyl)-acrylamide] | 50 to 500 |
